Data on 24 molecules can be found in patent US9586914B2, “Modulators of C3a receptors” (THE UNIVERSITY OF QUEENSLAND, priority 2011, dated 2017).

One experiment addresses T1, C3aR (Homo sapiens, UniProt Q16581).
T1 construct: peripheral blood mononuclear cells were isolated from buffy coat (obtained from Australian Red Cross Blood Service, Kelvin Grove); endogenous in cells; host or cells: primary human monocyte-derived macrophages (HMDM) differentiated from CD14+ monocytes of donor buffy coat
T1 sequence (Q16581 1-482): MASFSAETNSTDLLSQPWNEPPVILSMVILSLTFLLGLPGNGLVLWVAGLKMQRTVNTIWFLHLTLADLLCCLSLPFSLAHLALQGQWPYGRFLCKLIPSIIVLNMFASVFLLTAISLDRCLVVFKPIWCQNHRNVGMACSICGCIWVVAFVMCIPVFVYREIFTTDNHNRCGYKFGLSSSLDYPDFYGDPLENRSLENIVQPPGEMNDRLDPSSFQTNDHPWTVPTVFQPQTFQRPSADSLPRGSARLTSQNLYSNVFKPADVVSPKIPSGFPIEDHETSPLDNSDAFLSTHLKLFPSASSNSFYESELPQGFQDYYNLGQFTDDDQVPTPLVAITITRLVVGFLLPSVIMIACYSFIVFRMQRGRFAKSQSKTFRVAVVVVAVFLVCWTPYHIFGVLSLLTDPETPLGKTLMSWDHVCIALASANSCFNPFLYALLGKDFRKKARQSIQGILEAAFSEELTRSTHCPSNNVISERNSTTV
Briefly: Calcium mobilization assay in HMDM (agonist/antagonist activity). It is filed as cell-based. Conditions: for Emax at 10 µM: read-out: % agonist. The protocol:
Harvested HMDM cells were washed with 0.9% NaCl solution by centrifugation at 2500 rpm for 5 min, followed by resuspension of the cell pellet with complete media. Cells were seeded at 5×10^4 cells/well in a 96-well black-wall, clear bottom plate (DKSH, Zurich), and left overnight to adhere at 37° C. On the day of the experiment, supernatant was removed and cells were incubated in dye loading buffer (Hank's Balanced Salt Solution (HBSS) with 4 μM Fluo-3, 25 μL pluronic acid, 1% fetal bovine serum (FBS) and 2.5 mM probenecid) for one hour at 37° C. Cells were then washed twice with HBSS and transferred to a Fluorostar spectrofluorimeter (BMG, Durham N.C.) for oxazole compound injection and fluorescence measurements.
Various compounds were examined in the calcium mobilization assay for agonist or antagonist activity compared to hC3a and to the known antagonist SB290157.
HMDMs were seeded into black-wall, clear bottom 96-well plates (Corning Incorporated, NY) at 50,000 cells/well and left to incubate at 37° C. with 5% CO2 overnight for cells to adhere. The medium was removed before being washed with the assay buffer (1×HBSS, 20 mM HEPES, 2.5 mM probenecid, pH 7.4). To each well was added 100 μL of dye-loading buffer made up of 12 mL calcium buffer, 1% FBS, 25 μL of Fluo-3 dye (final concentration of 4 μM) and 25 μL of 20% pluronic acid. The plate was covered in aluminium foil to protect the light-sensitive dye and left to incubate at 37° C. for 1 h. The dye-loading buffer was removed before the cells were washed with the assay buffer to remove excess loading dye. To each well was added 50 μL of fresh assay buffer before the plate was loaded into a FLIPR (Fluorescent Imaging Plate Reader) that can inject treatments and measure any calcium release. To generate agonist plots, calcium release was monitored for 300 seconds. To generate antagonist plots, calcium release was recorded for 900 seconds, which at the same time would allow incubation for the antagonists. After the initial incubation period, an agonist would be added and the response was recorded for 300 seconds. Intracellular release of calcium was recorded via fluorescence measurements at wavelength of 485 nm for excitation and 520 nm for emission.
In general terms: Calcium flux is commonly read through the fluorescence of an indicator in the cells.

In another experiment the target is T2, C3a receptor (C3aR) (Homo sapiens, UniProt Q16581).
T2 construct: peripheral blood mononuclear cells were isolated from buffy coat (obtained from Australian Red Cross Blood Service, Kelvin Grove); endogenous in cells; host or cells: primary human monocyte-derived macrophages (HMDM) differentiated from CD14+ monocytes of donor buffy coat
T2 sequence (Q16581 1-482): T1 sequence (Q16581 1-482)
Description: Competitive binding with [^125I]-C3a in HMDM. Conditions: for remaining activity at 20 µM: 1 h, read-out: %[^125I]-C3a binding. The text has this:
For HMDM, peripheral blood mononuclear cells were isolated from buffy coat (obtained from Australian Red Cross Blood Service, Kelvin Grove) using Ficoll-paque density centrifugation (GE Healthcare Bio-Science, Uppsala, Sweden). CD^14+ monocytes were positively selected using CD^14+ MACS magnetic beads (Miltenyi Biotech, Auburn, Calif., USA). […] Cells were harvested by gentle scraping in saline solution and replated for use on Day 7. […] Unbound radioactivity was removed by filtration through glass microfiber filters GF/B (Whatman Iner. […] The filter was washed 3 times with cold buffer (50 mM Tris-HCl) pH 7.4. […] The −log IC50 for each compound was calculated for separate experiments and express as an arithmetic mean standard error (SE). IC50 values were expressed as a geometric mean.

Setting [1] is: Table 9, Ca^2+ mobilization, HMDM, read-out: EC50.
Where [2] appears, read: Table 10, HMDM, read-out: Antagonist Activity Ca^2+ IC50.
[3] abbreviates: Table 6, competitive binding with [^125I]-C3a, HMDM, read-out: IC50 (converted).
Setting [4] is: Table 8, HMDM, read-out: Receptor Binding Affinity ^125I IC50.
The mark [5] stands for this setting: Table 14, binding affinity for C3aR on HMDM, read-out: -Log IC50 (converted).
[6] abbreviates: Table 6, competitive binding with [^125I]-C3a, HMDM.

Structures are written as SMILES. Read-outs that look alike come from different tables or passages of the source.

With `Cc1oc([C@H](CC(C)C)NC(=O)C2CCCCC2)nc1C(=O)N[C@@H](CCCNC(=N)N)C(=O)O` [Compound 32, Cyclohexane carboxylic acid-Leucine-5-Methyl-Oxazole-Arginine], the Emax at 10 µM on C3aR stood at 107%. The remaining activity at 20 µM on C3a receptor (C3aR) is 39%.

Regarding `Cc1nc(C(c2ccccc2)c2ccccc2)sc1C(=O)N[C@@H](CCCNC(=N)N)C(=O)O` [Compound 59, 2-Diphenylmethyl-4-methyl thiazole-5-carboxyl-Arg-OH], the EC50 (commonly the concentration needed to bring the measured effect to its halfway point) at C3aR (setting [1]) stood at 74800 nM; at C3aR (Table 12, read-out: Apparent Agonist Activity EC50), 74800 nM. Also, the IC50 at C3aR (setting [2]) was 1000 nM; at C3a receptor (C3aR) (setting [3]), 38 nM; at C3a receptor (C3aR) (Table 6, competitive binding with [^125I]-C3a, HMDM, read-out: pIC50 ± SEM (converted)) it was 91.2 nM; on C3a receptor (C3aR) (setting [4]) it was 38 nM; at C3a receptor (C3aR) (Table 12, read-out: Receptor Binding Affinity IC50), 91 nM; on C3a receptor (C3aR) (setting [5]), 12.6 nM.

Regarding `Cc1oc([C@H](CC(C)C)NC(=O)CCC(C)C)nc1C(=O)N[C@@H](CCCNC(=N)N)C(=O)O` [Compound 35, 4-Methyl valeric acid-Leucine-5-Methyl-Oxazole-Arginine], the Emax at 10 µM on C3aR turned out to be 95%.

With `CC(C)C[C@H](NC(=O)OC(C)(C)C)c1nc(C(=O)N[C@@H](CCCNC(=N)N[N+](=O)[O-])C(=O)O)co1` [Compound 89, (S)-2-(2-((S)-1-((tert-butoxycarbonyl)amino)-3-methylbutyl)oxazole-4-carboxamido)-5-(3-nitroguanidino)pentanoic acid], the IC50 on C3a receptor (C3aR) (setting [3]) is 129 nM.

For `N#CN=C(N)NCCC[C@H](NC(=O)c1ccc(C(c2ccccc2)c2ccccc2)s1)C(=O)O` [Compound 95, (S)-2-(5-benzhydrylthiophene-2-carboxamido)-5-(2-cyanoguanidino)pentanoic acid], the IC50 is 900 nM on C3aR (Table 13, calcium release from HMDM, read-out: Antagonist Activity IC50) and 853 nM at C3a receptor (C3aR) (setting [3]).

As for `CC(C)(C)OC(=O)N[C@@H](Cc1c[nH]c2ccccc12)c1nc(C(=O)N[C@@H](CCCNC(=N)N)C(=O)O)co1` [Compound 4, Boc-L-Tryptophan-Oxazole-Arg], at C3a receptor (C3aR) (setting [3]), the IC50 is 2290 nM.

On to `N=C(N)NCCC[C@H](NC(=O)c1oc(C(c2ccccc2)c2ccccc2)nc1-c1ccccc1)C(=O)O` [Compound 66, 2-Diphenylmethyl-4-phenyl oxazole-5-carboxyl-Arg-OH], for which the IC50 is 2000 nM at C3aR (setting [2]) and 123 nM at C3a receptor (C3aR) (setting [4]).

For the molecule `Cc1oc([C@H](CC(C)C)NC(=O)c2cc3ccccc3o2)nc1C(=O)N[C@@H](CCCNC(=N)N)C(=O)O` [Compound 26, Benzofuran carboxylic acid-Leucine-5-Methyl-Oxazole-Arginine], at C3aR, the Emax at 10 µM was 84%. Also, the remaining activity at 20 µM on C3a receptor (C3aR) is 19%.

Turning to `CC(C)C[C@H](NC(=O)OC(C)(C)C)c1nnc(C(=O)N[C@@H](CCCNC(=N)N)C(=O)O)o1` [Compound 83, Boc-Leucine-1-oxa-3,4-diazole-Arginine-OH], the IC50 at C3a receptor (C3aR) (setting [3]) is 1220 nM.

Consider `Cc1c(C(=O)N[C@@H](CCCNC(=N)N)C(=O)O)nc(C(c2ccccc2)c2ccccc2)n1C` [Compound 97, 2-Benzhydryl-1,5-Dimethyl imidazole-4-carboxyl-Arginine], for which the IC50 at C3a receptor (C3aR) (setting [3]) was 1140 nM; at C3a receptor (C3aR) (setting [5]), 1260 nM.

Consider `CC[C@H](C)[C@H](NC(=O)c1ccc(C(=O)c2ccccc2)cc1)c1nc(C(=O)N[C@@H](CCCNC(=N)N)C(=O)O)co1` [Compound 12, 4-Benzoylbenzoic acid-Isoleucine-Oxazole-Arginine-OH], for which the “pIC50 ± SEM” value at C3a receptor (C3aR) (setting [6]) is reported as 6.80 ± 0.15. Also, on C3a receptor (C3aR) (setting [3]), the IC50 was 157 nM.

Turning to `Cc1oc([C@H](CC(C)C)NC(=O)c2ccc(Oc3ccccc3)cc2)nc1C(=O)N[C@@H](CCCNC(=N)N)C(=O)O` [Compound 49, 4-Phenoxybenzoic acid-Leucine-5-Methyl-Oxazole-Arginine], the Emax at 10 µM on C3aR was 105%.

With `Cc1ccc(NC(=O)N[C@@H](CC(C)C)c2nc(C(=O)N[C@@H](CCCNC(=N)N)C(=O)O)c(C)o2)cc1` [Compound 45, p-Tolyl isocyanate-Leucine-5-Methyl-Oxazole-Arginine], the Emax at 10 µM at C3aR came to 64%.

Consider `N=C(N)NCCC[C@H](NC(=O)c1ccc(C(c2ccccc2)c2ccccc2)o1)C(=O)O` [Compound 57, 5-Diphenylmethyl-furan-2-carboxyl-Arg-OH], for which, on C3aR (text of Example 100), the “Function at C3aR (agonist / antagonist)” value is recorded as “antagonist”.

In the case of `CC[C@H](C)[C@H](NC(=O)c1ccc(N(C)C)cc1)c1nc(C(=O)N[C@@H](CCCNC(=N)N)C(=O)O)co1` [Compound 11, 4-(Dimethylamino)benzoic acid-Isoleucine-Oxazole-Arginine-OH], on C3a receptor (C3aR) (setting [6]), the “pIC50 ± SEM” value worked out at 6.10 ± 0.16. Moreover, the IC50 at C3a receptor (C3aR) (setting [3]) was 800 nM.

Take `CC(C)C[C@H](NC(=O)C1c2ccccc2-c2ccccc21)c1nc(C(=O)N[C@@H](CCCNC(=N)N)C(=O)O)co1` [Compound 17, 9-Fluorenecarboxylic acid-Leu-Oxazole-Arginine-OH]: on C3a receptor (C3aR) (setting [6]), the “pIC50 ± SEM” value is listed as 6.85 ± 0.15. For the same molecule, the IC50 on C3a receptor (C3aR) (setting [3]) was 142 nM.

With `Cc1oc([C@H](CC(C)C)NC(=O)c2ccncc2)nc1C(=O)N[C@@H](CCCNC(=N)N)C(=O)O` [Compound 31, Isonicotinic acid-Leucine-5-Methyl-Oxazole-Arginine], the Emax at 10 µM on C3aR was determined as 109%.

With `COc1cccc(C(=O)N[C@@H](CC(C)C)c2nc(C(=O)N[C@@H](CCCNC(=N)N)C(=O)O)c(C)o2)c1` [Compound 42, m-Anisic acid-Leucine-5-Methyl-Oxazole-Arginine], at C3aR, the Emax at 10 µM was 134%.

On to `CC(C)(C)OC(=O)N[C@@H](Cc1ccccc1)c1nc(C(=O)N[C@@H](CCCNC(=N)N)C(=O)O)co1` [Compound 3, Boc-L-Phenylalanine-Oxazole-Arg], for which, at C3a receptor (C3aR) (setting [3]), the IC50 is 509 nM.

Turning to `CC(C)C[C@H](NC(=O)OC(C)(C)C)c1nc(C(=O)N[C@@H](Cc2ccc(C(=N)NO)cc2)C(=O)O)co1` [Compound 84, (S)-2-(2-((S)-1-((tert-butoxycarbonyl)amino)-3-methylbutyl)oxazole-4-carboxamido)-3-(4-(N-hydroxycarbamimidoyl)phenyl)propanoic acid], the IC50 on C3a receptor (C3aR) (setting [3]) was 76 nM.

With `CC(C)C[C@H](NC(=O)[C@@H](C)c1ccc(N2Cc3ccccc3C2=O)cc1)c1nc(C(=O)N[C@@H](CCCNC(=N)N)C(=O)O)co1` [Compound 15, 2-(4-(1-oxoisoindolin-2-yl)phenyl)propanoic acid Leucine-Oxazole-Arginine-OH], the IC50 at C3a receptor (C3aR) (setting [3]) was 451 nM.

As for `N=C(N)NCCC[C@H](NC(=O)c1cnc(C(c2ccccc2)c2ccccc2)s1)C(=O)O` [Compound 78], at C3a receptor (C3aR) (setting [5]), the IC50 is 3.98 nM.

As for `Cc1c(C(=O)N[C@@H](CCCNC(=N)N)C(=O)O)nc([C@H](CC(C)C)NC(=O)OC(C)(C)C)n1C` [Compound 81, Boc-Leucine-1-methylimidazole-Arginine-OH], the EC50 at C3aR (setting [1]) came out at 60 nM.

Regarding `CC(C)Cc1ccc([C@H](C)C(=O)N[C@@H](CC(C)C)c2nc(C(=O)N[C@@H](CCCNC(=N)N)C(=O)O)co2)cc1` [Compound 14, 2-(4-isobutylphenyl)propanoic acid Leucine-Oxazole-Arginine-OH], the IC50 at C3a receptor (C3aR) (setting [3]) was 1030 nM.
